Article PMC3199943, “Screening the MayBridge Rule of 3 Fragment Library for Compounds That Interact with the Trypanosoma brucei myo-Inositol-3-Phosphate Synthase and/or Show Trypanocidal Activity” (Molecular Biology International, 2011)
Read-outs that look alike come from different tables or passages of the source.

Assays:
A549 cells = experiment: Cytotoxicity against A549 cells, Alamar Blue; assay type: cell-based; conditions: Supplementary Table 1, compound 0.5 mM, percentage of controls (n=1); for viability at 500 µM: Homo sapiens, A549, 65 h
Outline: (§1)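 HeLa and A549 cells grown in DMEM with 10% FCS and 2 mM L-Glutamine were seeded at 2 × 10^4 cells/well. They were exposed to compounds for ~65 hours, then Alamar Blue was added for a further 5 hours to measure viability.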

TbINO1 = biological target: T1, TbINO1 (Trypanosoma brucei brucei, UniProt Q5QQ46); experiment: biochemical; assay type: binding
T1 sequence (Q5QQ46 1-528): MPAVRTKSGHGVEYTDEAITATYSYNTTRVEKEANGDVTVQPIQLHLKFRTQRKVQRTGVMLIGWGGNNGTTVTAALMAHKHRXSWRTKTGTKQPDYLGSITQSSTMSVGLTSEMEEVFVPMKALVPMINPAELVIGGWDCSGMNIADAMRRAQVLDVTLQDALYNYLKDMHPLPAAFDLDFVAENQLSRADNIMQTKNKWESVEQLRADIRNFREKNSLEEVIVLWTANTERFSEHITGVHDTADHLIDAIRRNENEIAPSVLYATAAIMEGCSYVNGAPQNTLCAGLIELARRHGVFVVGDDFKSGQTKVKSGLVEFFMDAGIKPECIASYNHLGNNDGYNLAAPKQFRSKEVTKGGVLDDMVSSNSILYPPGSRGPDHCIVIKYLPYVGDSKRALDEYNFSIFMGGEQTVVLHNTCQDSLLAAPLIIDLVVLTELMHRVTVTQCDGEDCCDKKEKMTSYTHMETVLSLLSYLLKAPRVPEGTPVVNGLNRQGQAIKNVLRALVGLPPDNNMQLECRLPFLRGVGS

HeLa cells = experiment: cells; conditions: for viability at 500 µM / CC50: Homo sapiens, HeLa; for viability at 500 µM: 65 h; for HeLa Cells Alamar Blue: Supplementary Table 1; for CC50: read-out: HeLa ED50
Outline: as §1

[1] = read-out: Tb Ino1 Tm Shift [˚C]
[2] = read-out: HeLa Cells Alamar Blue
[3] = Supplementary Table 1, compound 1mM, mean ± SD from Boltzman curve fitting
[4] = compound 0.5 mM, percentage of controls, mean ± SD (n=3) or SE (n=2)
[5] = read-out: HeLa Cells Alamar Blue (% survival)
[6] = read-out: HeLa Cells Alamar Blue, Supplementary Table 1, compound 0.5 mM, percentage of controls, mean ± SD (n=3) or SE (n=2)

Compound	viability at 500 µM (A549 cells) [%]	ΔTm at 1000 µM (TbINO1; [1]) [°C]	viability at 500 µM (HeLa cells; [2]) [%]	other results
NCc1ccccc1N1CCOCC1 [compound 571, 2‐morpholinobenzylamine]	70.9	0.06 ± 0.07	95 ± 17.5	
Cc1ccsc1CN [compound 83, (3‐methyl‐2‐thienyl)methylamine]	124	0.43 ± 0.06	95.4 ± 10	
OCc1cn2ccsc2n1 [compound 221, imidazo[2,1‐b]thiazol‐6‐ylmethanol]	99.5	0.09 ± 0.23	107 ± 7.6	
CC(=O)Nc1cc(C)ccc1O [compound 303, N1‐(2‐hydroxy‐5‐methylphenyl)acetamide]				A549 Cells Alamar Blue (A549 cells): 45 percentage of controls; Tb Ino1 Tm Shift [˚C] (TbINO1; [3]): 0.15 ± 0.07 °C; HeLa Cells Alamar Blue (HeLa cells; [4]): 95.3 ± 9.8 percentage of controls
N#Cc1ccccc1OC(F)(F)F [compound 509, 2‐(trifluoromethoxy)benzonitrile]	110	0.01 ± 0.08	106 ± 16.9	
COC(=O)c1ccccc1-n1cccc1 [compound 628, methyl 2‐(1H‐pyrrol‐1‐yl)benzoate]	85.1	0.84 ± 0.08	70.4 ± 14	
CN1CCN(Cc2ccccc2N)CC1 [compound 670, 2‐[(4‐methylpiperazin‐1‐yl)methyl]aniline]	121		94.6 ± 8.5	ΔTm at 1000 µM (TbINO1; Supplementary Table 1, compound 1mM, mean ± SD from Boltzman curve fitting, read-out: Tb Ino1 Tm Shift [˚C]): 0.05 ± 0.07 °C
Cn1ccc(N)n1 [compound 8, 1‐methyl‐1H‐pyrazol‐3‐amine]	122	0.09 ± 0.07	107 ± 7.8	
O=C(O)c1ccccc1-c1ccco1 [compound 520, 2-(2-furyl)benzoic acid]	124		73 ± 11.5	ΔTm at 1000 µM (TbINO1; read-out: TbIno1 Tm shift [°C]): 4.29 ± 0.07 °C; viability at 500 µM (HeLa cells; [5]): 73 ± 11.5%; CC50 (HeLa cells): > 20 mM
NCc1ccoc1 [compound 5, 3‐furylmethylamine]	113	0.3 ± 0.06	101 ± 5.3	
Nc1cccc(-c2ccsc2)c1 [compound 404, 3‐thien‐3‐ylaniline]	83.3	0.17 ± 0.05	89.4 ± 17.7	
CC(C)(C)OC(=O)Nc1ccsc1 [compound 619, tert‐butyl N‐(3‐thienyl)carbamate]	74.9	0.21 ± 0.07	80 ± 17.5	
CN1C2CCC1CC(=NO)C2.Cl [compound 552, 8‐methyl‐8‐azabicyclo[3.2.1]octan‐3‐one oxime hydrochloride]				A549 Cells Alamar Blue (A549 cells): 105.3 percentage of controls; Tb Ino1 Tm Shift [˚C] (TbINO1; [3]): 0 ± 0.09 °C; HeLa Cells Alamar Blue (HeLa cells; [4]): 103.5 ± 9.7 percentage of controls
CC(=O)CSc1ccc(C)cc1 [compound 460, 1‐[(4‐methylphenyl)thio]acetone]	96.9	0.46 ± 0.07	97 ± 2.5	
Nc1cc(-c2cccs2)[nH]n1 [compound 313, 5‐thien‐2‐yl‐1H‐pyrazol‐3‐amine]	81.7	0.69 ± 0.08	101 ± 18.9	
O=C(O)c1c[nH]c2ccccc12 [compound 273, 1H‐indole‐3‐carboxylic acid]	61.8	0.01 ± 0.05	85.4 ± 12.2	
OCc1ccc(-c2ccccn2)s1 [compound 556, [5‐(2‐pyridinyl)‐2‐thienyl]methanol]	93.9	0.19 ± 0.08	70.2 ± 11	
N#Cc1ccc(O)cc1F [compound 120, 2‐fluoro‐4‐hydroxybenzonitrile]	72.6	0.41 ± 0.06	18.6 ± 10.7	
Nc1ccc2c(c1)C(=O)OC2 [compound 175, 6‐amino‐1,3‐dihydroisobenzofuran‐1‐one]	79.5	0.04 ± 0.08	106 ± 17	
COC(=O)c1cccc(CN)c1.Cl [compound 632, 3‐Aminomethylbenzoic acid methyl ester hydrochloride]				A549 Cells Alamar Blue (A549 cells): 107.3 percentage of controls; Tb Ino1 Tm Shift [˚C] (TbINO1; [3]): 0.22 ± 0.07 °C; HeLa Cells Alamar Blue (HeLa cells; [4]): 44.8 ± 10.2 percentage of controls
O=C(O)c1cc2cccnc2s1 [compound 445, thieno[2,3‐b]pyridine‐2‐carboxylic acid]	45.2	0.61 ± 0.08	88 ± 8.1	

Compound	viability at 500 µM (A549 cells) [%]	ΔTm at 1000 µM (TbINO1; [1]) [°C]	viability at 500 µM (HeLa cells; [2]) [%]	other results
Nc1cccc(Cn2ccnc2)c1 [compound 377, 3‐(1H‐imidazol‐1‐ylmethyl)aniline]	62.4	0.19 ± 0.07	103 ± 12.6	
O=C(O)c1cnccc1C(F)(F)F [compound 553, 4‐(trifluoromethyl)nicotinic acid]	103	0.28 ± 0.07	102 ± 12.4	
OCc1cccnc1N1CCCC1 [compound 440, [2‐(1‐pyrrolidinyl)‐3‐pyridinyl]methanol]	94	0.78 ± 0.08	74.6 ± 7.5	
OCc1nc2ccccc2[nH]1 [compound 169, 1H‐benzimidazol‐2‐ylmethanol]	81.7	0.04 ± 0.07	121 ± 15	
c1cnc2c(n1)CCCC2 [compound 111, 5,6,7,8‐tetrahydroquinoxaline]	96.1	0.16 ± 0.06	95.6 ± 0.8	
O=C(O)c1ccccc1F [compound 129, 2‐fluorobenzoic acid]	126	0.13 ± 0.07		viability at 500 µM (HeLa cells; [6]): 78.6 ± 14.2%
N#Cc1cccc(N2CCCC2)c1 [compound 362, 3‐pyrrolidin‐1‐ylbenzonitrile]	63.3	0.05 ± 0.07	97.4 ± 19.9	
OCc1ccccc1Cl [compound 143, (2‐chlorophenyl)methanol]	109	0.46 ± 0.05	93.3 ± 6.6	
Nc1ccccc1OC(F)(F)F [compound 418, 2‐(trifluoromethoxy)aniline]	97.9	0.14 ± 0.07	99.1 ± 14.1	
O=C(O)Cc1coc2ccccc12 [compound 410, benzo[b]furan‐3‐ylacetic acid]	97.4	0.8 ± 0.07	54.1 ± 10.3	
COc1c(C(=O)O)csc1Cl [compound 575, 5‐chloro‐4‐methoxythiophene‐3‐carboxylic acid]				A549 Cells Alamar Blue (A549 cells): 91.2 percentage of controls; Tb Ino1 Tm Shift [˚C] (TbINO1; [3]): 1.07 ± 0.08 °C; HeLa Cells Alamar Blue (HeLa cells; [4]): 90.5 ± 15.4 percentage of controls
CC(=O)Oc1ccc(C)c2c1CCC2 [compound 541, 7‐methyl‐2,3‐dihydro‐1H‐inden‐4‐yl acetate]				A549 Cells Alamar Blue (A549 cells): 93.1 percentage of controls; Tb Ino1 Tm Shift [˚C] (TbINO1; [3]): 0.01 ± 0.07 °C; HeLa Cells Alamar Blue (HeLa cells; [4]): 79.8 ± 6.6 percentage of controls
(Piperidino‐3‐pyridinyl)methanol [compound 569]				A549 Cells Alamar Blue (A549 cells): 106.4 percentage of controls; Tb Ino1 Tm Shift [˚C] (TbINO1; [3]): 0.35 ± 0.07 °C; HeLa Cells Alamar Blue (HeLa cells; [4]): 89.2 ± 4.8 percentage of controls
O=C(O)c1cc2sccc2[nH]1 [compound 328, 4H-thieno[3,2-b]pyrrole-5-carboxylic acid]	136			ΔTm at 1000 µM (TbINO1; read-out: TbIno1 Tm shift [°C]): 2.29 ± 0.1 °C; viability at 500 µM (HeLa cells; read-out: HeLa Cells Alamar Blue (% survival), compound 0.5 mM, percentage of controls): 106 ± 6.9%; viability at 500 µM (HeLa cells; [6]): 106 ± 6.9%
COC(=O)c1sccc1O [compound 247, methyl 3‐hydroxythiophene‐2‐carboxylate]				A549 Cells Alamar Blue (A549 cells): 108.7 percentage of controls; Tb Ino1 Tm Shift [˚C] (TbINO1; [3]): 0.2 ± 0.07 °C; HeLa Cells Alamar Blue (HeLa cells; [4]): 95.4 ± 6.1 percentage of controls
Cc1cc(O)cc(C)c1C#N [compound 164, 4‐hydroxy‐2,6‐dimethylbenzonitrile]	90	0.26 ± 0.08	55.8 ± 12.1	
N#Cc1ccc(OC2CCOCC2)cc1 [compound 645, 4‐(tetrahydropyran‐4‐yloxy)benzonitrile]	102	0.18 ± 0.05	77.4 ± 15.8	
O=C(O)C(O)c1ccccc1 (stereo not drawn) [compound 202, 2‐hydroxy‐2‐phenylacetic acid]	55.6	0	96.7 ± 12.5	
O=C1Cc2ccccc2N1 [compound 99, indolin-2-one]	229		66.6 ± 18.7	ΔTm at 1000 µM (TbINO1; read-out: TbIno1 Tm shift [°C]): 2.04 ± 0.07 °C; viability at 500 µM (HeLa cells; [5]): 66.6 ± 18.7%; CC50 (HeLa cells): > 2 mM
O=C(O)Cc1c[nH]c2ccccc12 [compound 391, 2-(1H-indol-3-yl)acetic acid]	134		42.6 ± 6.4	ΔTm at 1000 µM (TbINO1; read-out: TbIno1 Tm shift [°C]): 1.67 ± 0.08 °C; viability at 500 µM (HeLa cells; [5]): 42.6 ± 6.4%
